The text below walks through data of US6235769A, “Methods of preventing and treating neurological disorders with compounds that modulate the function of the C-RET receptor protein tyrosine kinase” (Sugen, Inc., priority 1998, dated 2001).

Holding throughout (assay type): cell-based
One assay relates to FLK-1 receptor. Nature of the assay: FLK-1 ELISA, catalytic activity of the FLK-1 receptor in FLK-1/NIH3T3 cells. The note with it: concentration that yielded a two-hundred percent increase in catalytic activity in the FLK-1 ELISA. The protocol:
An enzyme linked immunosorbant assay (ELISA) can be conducted to measure the catalytic activity of the FLK-1 receptor and more specifically, the inhibition or activation of indolinone compounds of the catalytic activity of the FLK-1 receptor. The following assay was conducted to measure catalytic activity of the FLK-1 receptor in FLK-l/NIH3T3 cells.
One skilled in the art can adapt such a procedure to other receptor tyrosine protein kinases to identify compounds that modulate the function of the receptor.
This type of assay can be developed for nearly any RPTK using well known techniques utilized by persons of ordinary skill in the art. The FLK-1/NIH3T3 cell lines are also created by techniques well known to those skilled in the art. The NIH3T3 cells were stably transfected with gene constructs containing the FLK-1 gene. The nucleic acid vectors used for this type of procedure are commonly and commercially available to those skilled in the art. The methods of cloning the genes of interest into these nucleic acid vectors and the methods of transfecting these nucleic acid constructs into cells are also well known to those skilled in the art. Sambrook, Fritsch, Maniatis, Molecular Cloning, A Laboratory Manual 2nd Ed., Cold Spring Harbor Laboratory Press, 1989.
1. Coat Corning 96-well ELISA plates with 1.0 μg per well Cappel Anti-rabbit IgG antibody in 0.1 M Na2 CO3 pH 9.6. Bring final volume to 150 μL per well. Coat plates overnight at 4° C. Plates can be kept up to two weeks when stored at 4° C.
2. Grow cells in Growth media (DMEM, supplemental with 2.0 mM L-Glutamine, 10% FBS) in suitable culture dishes until confluent at 37° C., 5% CO2.
3. Harvest cells by trypsinization and seed in Corning 25850 polystyrene 96-well roundbottom cell plates, 25.000 cells/well in 200 μL of growth media.
4. Grow cells at least one day at 37° C., 5% CO2.
5. Wash cells with D-PBS 1×.
6. Add 200 μL/well of starvation media (DMEM, 2.0 mM 1-Glutamine, 0.1% FBS). Incubate overnight at 37° C., 5% CO2.
7. Dilute Compounds/Extracts 1:20 in polypropylene 96 well plates using starvation media. Dilute dimethylsulfoxide 1:20 for use in control wells.
8. Remove starvation media from 96 well cell culture plates and add 162 μL of fresh starvation media to each well.
9. Add 18 μL of 1:20 diluted Compound/Extract dilution (from step 7) to each well plus the 1:20 dimethylsulfoxide dilution to the control wells (+/-VEGF), for a final dilution of 1:200 after cell stimulation. Final dimethylsulfoxide is 0.5%. Incubate the plate at 37° C., 5% CO2 for two hours.
10. Remove unbound antibody from ELISA plates by inverting plate to remove liquid. Wash 3 times with TBSW+0.5% ethanolamine, pH 7.0. Pat the plate on a paper towel to remove excess liquid and bubbles.
11. Block plates with TBSW+0.5% Ethanolamine, pH 7.0, 150 μL per well. Incubate plate thirty minutes while shaking on a microtiter plate shaker.
12. Wash plate 3 times as described in step 10.
13. Add 0.5 μg/well affinity purified […] polyclonal rabbit antiserum. Bring final volume to 150 μL/well with TBSW+0.5% ethanolamine pH 7.0. Incubate plate for thirty minutes while shaking.
14. Add 180 μL starvation medium to the cells and stimulate cells with 20 μL/well 10.0 mM sodium ortho vanadate and 500 ng/mL VEGF (resulting in a final concentration of 1.0 mM sodium ortho vanadate and 50 ng/mL VEGF per well) for eight minutes at 37° C., 5% CO2. Negative control wells receive only starvation medium.
15. After eight minutes, media should be removed from the cells and washed one time with 200 μL/well PBS.
16. Lyse cells in 150 μL/well HNTG while shaking at room temperature for five minutes. HNTG formulation includes sodium ortho vanadate, sodium pyro phosphate and EDTA.
17. Wash ELISA plate three times as described in step 10.
18. Transfer cell lysates from the cell plate to ELISA plate and incubate while shaking for two hours. To transfer cell lysate pipette up and down while scrapping the wells.
19. […]

The next assay has as its system chicken trkA receptor. Nature of the assay: Receptor phosphorylation in cells expressing both rat and chicken trkA, chick receptor. The note with it: NGF or CTA. The protocol:
(§1) The assumption was tested by expressing both rat and chicken trkA receptors in the same cell and activating them with either neurotrophic growth factor (NGF), which binds both receptors, or with the CTA antibody, which binds only the chick receptor. […] The effects of the CTA antibody preparation were therefore not attributable to activation of endogenous trkA receptors.
(§2) The conditions for immunoprecipitation and immunoblotting used in the experiments were described previously (Clary et al., 1994, Mol. Biol. Cell 5: 549-563) with modifications as follows. Immunoblots were performed in Tris-buffered saline containing 0.1% Triton X-100, and filter blocking and antibody incubations were performed in the same buffer with 1% BSA. In other experiments, anti-phosphotyrosine detection was performed with biotinylated-4G10 monoclonal antibody followed by a peroxidase avidin-biotin complex. Other antibodies were detected with peroxidase coupled anti-mouse IgG, anti-rabbit IgG, or protein A as indicated. All peroxidase conjugates were detected using a chemiluminescence protocol (Pierce Chemical Co. Rockford, Ill.).

The subject of the next assay is rat trkA receptor. Nature of the assay: Receptor phosphorylation in cells expressing both rat and chicken trkA, rat receptor. The protocol:
as §1, §2

Assay [1] deals with c-ret chimera (human C-RET transmembrane and cytoplasmic domains fused to chicken TRKA extracellular domain). Nature of the assay: Chimeric receptor activation in infected C6 glioma cells (anti-phosphotyrosine immunoblot), c-ret chimera. The note with it: 50 ng/mL NGF, five minutes. The protocol:
(§3) DNA constructs were generated, which encoded the transmembrane and cytoplasmic domains from human MCK-10, C-RET, mouse SEK, and rat TRKA fused to the chicken TRKA extracellular domain. These chimeric receptor constructs were then inserted into the adenovirus transfer vector, and recombinant viruses were generated and purified. Rat C6 glioma cells were infected with the recombinant viruses, and the resulting chimeric receptors were analyzed via immunoblot analysis.
(§4) The ability to activate the chimeras was evaluated by incubating the infected C6 monolayers with 50 ng/mL NGF for five minutes. The receptors were immunoprecipitated with the CTA antibody, immunoblotted, and probed either with the anti-phosphotyrosine antibody 4G10 or with the CTA antibody preparation.
(§5) C6 glioma cells were grown in Ham's Flo medium containing 10% fetal calf serum; for receptor activation experiments the medium was changed to 0.5% fetal calf serum 12 hours prior to stimulation.
Background: In western blotting, separated proteins are transferred to a membrane and probed.

Assay [2] deals with sek chimera (mouse SEK transmembrane and cytoplasmic domains fused to chicken TRKA extracellular domain). Nature of the assay: Chimeric receptor activation in infected C6 glioma cells (anti-phosphotyrosine immunoblot), sek chimera. The following applies: 50 ng/mL NGF, five minutes. Here is the method: as §3, §4, §5
Assay [3] concerns MCK-10 chimera (human MCK-10 transmembrane and cytoplasmic domains fused to chicken TRKA extracellular domain). Nature of the assay: Chimeric receptor activation in infected C6 glioma cells (anti-phosphotyrosine immunoblot), MCK-10 chimera. The following applies: 50 ng/mL NGF, before or after incubation. Here is the method:
as §3, §4, §5

Take `CC(C)c1cc(C(C)C)c(/C=C2\C(=O)Nc3ccc(C(=O)O)cc32)[nH]1` [Indolinone 1]: the EC200 with FLK-1 receptor stood at 10 µM.

In the assay with FLK-1 receptor, `CCc1cc(CC)c(/C=C2\C(=O)Nc3ccc(C(=O)O)cc32)[nH]1` [Indolinone 2] showed an EC200 of 2.8 µM.

As to `Cc1cc(C)c(/C=C2\C(=O)Nc3ccc(CCC(=O)O)cc32)[nH]1` [Indolinone 3], the EC200 in the assay with FLK-1 receptor amounted to 32 µM.

With `Cc1cc(C)c(/C=C2\C(=O)Nc3ccc(C(=O)O)cc32)[nH]1` [Indolinone 4], the EC200 in the assay with FLK-1 receptor was 2.8 µM.

`Cc1ccc(/C=C2\C(=O)Nc3ccc(CCC(=O)O)cc32)s1` [Indolinone 5] returned an EC200 in the assay on FLK-1 receptor greater than 100 µM.

`Cc1ccc(/C=C2\C(=O)Nc3ccc(C(=O)O)cc32)s1` [Indolinone 6] showed an EC200 in the assay with FLK-1 receptor of 46 µM.

Take “NGF: nerve growth factor, which binds to the extracellular region of the TRK receptor”: the “phosphorylation of the chick receptor” value with chicken trkA receptor is “became phosphorylated”. In addition, the “activation of the rat receptor” value in the assay on rat trkA receptor was “activation of the rat receptor was detected only after NGF addition”. Moreover, in assay [1], the “activation of c-ret chimera” value is “NGF-dependent activation of the c-ret and sek chimeras was detected”. Further, the “activation of sek chimera” value in assay [2] was “NGF-dependent activation of the c-ret and sek chimeras was detected”. For the same compound, the “phosphotyrosine of MCK-10 chimeric protein” value in assay [3] is reported as “Phosphotyrosine was not detected”.
